Data set [1] relates to Human immunodeficiency virus 1. Description: Antiviral activity against HIV1 infected in human C8166 cells expressing LTR after 3 days by luciferase reporter gene assay. To be noted: Human immunodeficiency virus 1, C8166, 72 h. It counts as functional, organism-based. For orientation: In a reporter assay the amount or activity of a reporter protein is the signal.
A short description of data set [2]: Cytotoxicity against human C8166 cells. It counts as cell-based.
In data set [3] the target is Structural capsid protein (Human immunodeficiency virus 1, UniProt Q76129). Description: Inhibition of HIV1 capsid-nucleocapsid assembly expressed in Escherichia coli BL21(DE3) after 2 hrs by fluorescence assay.
Data set [4] deals with Structural capsid protein (Human immunodeficiency virus 1) (UniProt Q76129). Description: Inhibition of HIV1 capsid-nucleocapsid assembly expressed in Escherichia coli BL21(DE3) at 3.5 uM after 2 hrs by fluorescence assay relative to control.
Structural capsid protein (Human immunodeficiency virus 1), sequence (Q76129 as listed by the source): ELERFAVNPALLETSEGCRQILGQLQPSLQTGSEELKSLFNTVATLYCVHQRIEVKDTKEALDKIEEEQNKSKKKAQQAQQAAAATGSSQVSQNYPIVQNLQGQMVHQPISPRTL

Structural capsid protein, sequence (Q76129 whole entry): as the sequence (Q76129 as listed by the source) above

`CCN1C(=O)N(c2ccc(O)cc2)C(=O)N(c2ccccc2)c2cc(C(F)(F)F)ccc21` returned an EC50 in data set [1] of 380 nM. In data set [2], this molecule showed a CC50 of 35000 nM. The molecule also showed an IC50 in data set [3] of 50 nM.
The molecule `CCN1C(=O)N(c2cccc(C(=O)NCCN3CCOCC3)c2)C(=O)N(c2ccccc2)c2cc(C(F)(F)F)ccc21` registered an EC50 in data set [1] of 1100 nM. The molecule also had a CC50 in data set [2] of more than 19000 nM. This molecule displayed an IC50 in data set [3] of 220 nM.
In the case of `CCN1C(=O)N(c2ccc(O)c(C)c2)C(=O)N(c2ccccc2)c2cc(C(F)(F)F)ccc21`, in data set [1], it took 260 nM to reach a half-maximal effect (EC50). The molecule further registered a half-maximal cytotoxic concentration (CC50) in data set [2] of 17000 nM. The same molecule came in with an IC50 in data set [3] of 90 nM.
In the same order, the values of `CCN1C(=O)N(c2ccccc2)C(=O)N(c2ccccc2)c2cc(C(F)(F)F)ccc21` are 600 nM, more than 4000 nM and 630 nM.
As for `CCN1C(=O)C(c2ccccc2)C(=O)N(c2ccccc2)c2cc(C(F)(F)F)ccc21` (stereo unspecified), in data set [1], a half-maximal effect (EC50) was put at 2600 nM. The same molecule yielded an IC50 in data set [3] of 730 nM.
As to `CCN1C(=O)N(c2ccc(C)cc2)C(=O)N(c2ccccc2)c2cc(C(F)(F)F)ccc21`, the midpoint of the response in data set [1], the EC50, lay at 540 nM. The same molecule came in with a CC50 in data set [2] of more than 6500 nM. Moreover, in data set [3], the IC50 came to 190 nM.
Take `CN1C(=O)C(c2ccccc2)C(=O)N(c2ccccc2)c2cc(C(F)(F)F)ccc21` (stereo unspecified): in data set [3], the IC50 was found to be 680 nM.
`CCN1C(=O)N(c2ccc(C(=O)NC)cc2)C(=O)N(c2ccccc2)c2cc(C(F)(F)F)ccc21` yielded an EC50 in data set [1] of 480 nM. In data set [2], this molecule had a CC50 of 31000 nM. The IC50 in data set [3] worked out at 130 nM.
The matching figures for `CCN1C(=O)C2(CCc3cc(OC)ccc32)C(=O)N(c2ccccc2)c2cc(C(F)(F)F)ccc21` (stereo unspecified): 510 nM, more than 4000 nM and 160 nM.
On to `CCN1C(=O)N(c2cccc(OC)c2)C(=O)N(c2ccccc2)c2cc(C(F)(F)F)ccc21`, for which the response in data set [1] was half-maximal at 1200 nM (EC50). The CC50 in data set [2] was more than 20000 nM. In addition, the midpoint of inhibition in data set [3], the IC50, lay at 210 nM.
`CCN1C(=O)C2(CC(C)c3cc(O)ccc32)C(=O)N(c2ccccc2)c2cc(C(F)(F)F)ccc21` (stereo unspecified) showed an IC50 in data set [3] of 290 nM.
On the same count and under the same terms, the figure for `CCN1C(=O)C2(CC(C(C)C)c3cc(O)ccc32)C(=O)N(c2ccccc2)c2cc(C(F)(F)F)ccc21` (stereo unspecified) is 1100 nM.
Molecule `CCN1C(=O)N(c2ccc(OC)cc2)C(=O)N(c2ccccc2)c2cc(C(F)(F)F)ccc21` returned an EC50 in data set [1] of 720 nM. The half-maximal cytotoxic concentration (CC50) in data set [2] is more than 16000 nM. This molecule registered an IC50 in data set [3] of 180 nM.
In the same order, the values of `CN1C(=O)C2(CCc3cc(NC(=O)[C@@H]4CCCN4)ccc32)C(=O)N(c2ccccc2)c2cc(C(F)(F)F)ccc21` (stereo partly specified) are 520 nM, 11000 nM and 110 nM.
In the same order, the values of `CCN1C(=O)N(c2cccc(C(=O)NC)c2)C(=O)N(c2ccccc2)c2cc(C(F)(F)F)ccc21` are 1200 nM, more than 22000 nM and 280 nM.
With `CCN1C(=O)C2(CCc3ccccc32)C(=O)N(c2ccccc2)c2cc(C(F)(F)F)ccc21` (stereo unspecified), in data set [1], it took 1600 nM to reach a half-maximal effect (EC50). Moreover, in data set [2], the CC50 is more than 16000 nM. The IC50 in data set [3] was determined as 460 nM.
In data set [3], `CCN1C(=O)C2(CC(=O)c3cc(O)ccc32)C(=O)N(c2ccccc2)c2cc(C(F)(F)F)ccc21` (stereo unspecified) yielded an IC50 of 1500 nM.
In turn, `CN1C(=O)C2(CCc3cc(N)ccc32)C(=O)N(c2ccccc2)c2cc(C(F)(F)F)ccc21` (stereo unspecified) displayed an EC50 in data set [1] of 410 nM. Also, in data set [2], the 50% cytotoxic concentration (CC50) was more than 15000 nM. Further, the IC50 in data set [3] was determined as 160 nM.
In the same order, the values of `CCN1C(=O)C2(CCc3cc(O)ccc32)C(=O)N(c2ccccc2)c2cc(C(F)(F)F)ccc21` (stereo unspecified) are 690 nM, 32000 nM and 210 nM.
`CCN1C(=O)C2(CCc3ccc(O)cc32)C(=O)N(c2ccccc2)c2cc(C(F)(F)F)ccc21` (stereo unspecified): a half-maximal effect in data set [1] (EC50) was put at 1200 nM. In addition, the CC50 in data set [2] is more than 27000 nM. The same molecule returned an IC50 in data set [3] of 590 nM.
The matching figures for `CCN1C(=O)C2(CCc3c(O)cccc32)C(=O)N(c2ccccc2)c2cc(C(F)(F)F)ccc21` (stereo unspecified): 780 nM, more than 21000 nM and 240 nM.
Take `CCC1CC2(C(=O)N(CC)c3ccc(C(F)(F)F)cc3N(c3ccccc3)C2=O)c2ccc(O)cc21` (stereo unspecified): in data set [3], half-maximal inhibition (IC50) required 730 nM.
Still for that read-out and setting: the figure for `CCN1C(=O)C2(CC(O)c3cc(O)ccc32)C(=O)N(c2ccccc2)c2cc(C(F)(F)F)ccc21` (stereo unspecified) is 2100 nM.
Regarding `CCN1C(=O)N(c2cc(C)c(O)c(Cl)c2)C(=O)N(c2ccccc2)c2cc(C(F)(F)F)ccc21`, in data set [1], the midpoint of the response, the EC50, lay at 150 nM. The same molecule showed a CC50 in data set [2] of more than 10000 nM. In addition, half-maximal inhibition in data set [3] (IC50) required 60 nM.
The molecule `CN1C(=O)C(C)(c2ccccc2)C(=O)N(c2ccccc2)c2cc(C(F)(F)F)ccc21` (stereo unspecified) gave an inhibition in data set [4] of 8%.
`CCN1C(=O)C2(CC(N)c3cc(O)ccc32)C(=O)N(c2ccccc2)c2cc(C(F)(F)F)ccc21` (stereo unspecified) had an IC50 in data set [3] of 3600 nM.

Broadly, the EC50 is the concentration giving half of the maximal effect. Low readings indicate an effect from little substance, high ones a need for much substance. The term CC50 denotes the concentration that lowers cell viability or growth by half. A higher CC50 goes with lower toxicity to the cells. As usually defined, the IC50 is the concentration needed to halve the response being measured. A high value points to lower potency. One may read the inhibition as the share of the control response that was lost under treatment. The low end stands for a weak effect, the high end for a strong effect.

(Values after ChEMBL document CHEMBL2385011, “Optimization of a 1,5-dihydrobenzo[b][1,4]diazepine-2,4-dione series of HIV capsid assembly inhibitors 1: addressing configurational instability through scaffold modification” (Bioorg Med Chem Lett, 2013).)
